From patent US9409975B2, “Antibody binding microbial heparin binding motif to retard or prevent microbial biofilm formation on implanted medical devices” (priority 2012, dated 2016) come the findings set out here.

The test relates to C. albicans. The test is described as follows: Heparin-binding ELISA assay: C. albicans binding to solid-phase heparin, desulfated heparin analogs, chondroitin sulfate or dermatan sulfate. The class given is cell-based, Candida albicans. Conditions: equimolar amounts with respect to heparin. Here is the method: To measure the binding of C. albicans to solid-phase heparin, a heparin-binding ELISA assay was developed, as follows. A single colony of each C. albicans wild type or mutant strain from a YPD plate was inoculated into 3 ml YPD medium and incubated overnight at 30° C. with shaking at 225 rpm. Sigma heparin (fresh solution made daily), diluted to 25 units/ml in autoclaved, sterile-filtered PBS was added as 0.1 ml aliquots to each well of an allyl amine-coated 96-well heparin binding microtiter plate (BD Biosciences). The plate was incubated at room temperature overnight in the dark (50). In the morning, the plate was washed with acetate buffer (100 mM NaCl, […], 0.2% Tween 20, pH 7.2), incubated with 3% bovine serum albumin (BSA) in PBS at 30° C. for 1 hour, then washed with PBS. In the meantime, overnight cultures of C. albicans were subcultured by dilution to OD600 of 0.2 in 25 ml of YPD, and grown at 30° C. to mid-log phase (OD600 0.6-0.7). […] After 45 minutes, absorbance at 595 nm was read on a Beckman Coulter DTX 880. […]
The ELISA assay used a commercially available 96-well microtiter plate coated with polymerized allylamine (BD Biosciences) (27), in which wells were inoculated with 2.5 units (12.5 μg) heparin in 100 μl phosphate buffered saline (PBS) per well. […] The color change was read spectrophotometrically at absorbance of 595 nm.
Background: ELISA stands for enzyme-linked immunosorbent assay.

Turning to chondroitin sulfate, the “binding of C. albicans versus binding to heparin, in words” value is “equivalent”.
In the case of dermatan sulfate it was “reduced”.
